“And” between values parts separate entries of the source, which are not always exact repeats. Equal values may be shown once. ± gives the expanded uncertainty stated by the source.
Assay: mn = molality of the nth substance listed, in mol/kg
Details: 293 K, 100 kPa, Liquid, Alternating current cell with electrodes

CCC(=O)[O-].[NH3+]CCO [2-hydroxyethan-1-aminium propionate] + O
Details	electrical conductivity
m1 = 0.01786	0.107 ± 0.007 S/m
m1 = 0.022	0.116 ± 0.013 S/m
m1 = 0.03491	0.198 ± 0.015 S/m
m1 = 0.04447	0.218 ± 0.018 S/m
m1 = 0.05416	0.312 ± 0.022 S/m
m1 = 0.06841	0.338 ± 0.023 S/m
m1 = 0.0728	0.4 ± 0.039 S/m
m1 = 0.09126	0.43 ± 0.031 S/m
m1 = 0.0929	0.485 ± 0.036 S/m
m1 = 0.1121	0.574 ± 0.044 S/m
m1 = 0.1137	0.521 ± 0.039 S/m
m1 = 0.1322	0.658 ± 0.053 S/m
m1 = 0.1373	0.612 ± 0.049 S/m
m1 = 0.1504	0.74 ± 0.062 S/m
m1 = 0.1594	0.695 ± 0.057 S/m
m1 = 0.1692	0.821 ± 0.072 S/m
m1 = 0.1822	0.78 ± 0.067 S/m
m1 = 0.188	0.897 ± 0.081 S/m
m1 = 0.2038	0.845 ± 0.12 S/m
m1 = 0.2067	0.982 ± 0.13 S/m
m1 = 0.2263	0.921 ± 0.084 S/m
m1 = 0.2328	1.08 ± 0.11 S/m
m1 = 0.2472	0.991 ± 0.094 S/m
m1 = 0.2532	1.16 ± 0.12 S/m
m1 = 0.268	1.06 ± 0.1 S/m
m1 = 0.2729	1.24 ± 0.13 S/m
m1 = 0.2877	1.12 ± 0.17 S/m
m1 = 0.2905	1.3 ± 0.19 S/m
m1 = 0.3074	1.18 S/m and 1.37 S/m
m1 = 0.3237	1.43 ± 0.16 S/m
m1 = 0.3251	1.24 ± 0.13 S/m
m1 = 0.3388	1.48 ± 0.17 S/m
m1 = 0.3427	1.29 ± 0.14 S/m
m1 = 0.3534	1.53 ± 0.18 S/m
m1 = 0.3594	1.34 ± 0.15 S/m
m1 = 0.3669	1.58 ± 0.19 S/m
m1 = 0.3755	1.39 ± 0.16 S/m
m1 = 0.3798	1.63 ± 0.2 S/m
m1 = 0.3905	1.43 ± 0.16 S/m
m1 = 0.3917	1.67 ± 0.21 S/m
m1 = 0.4032	1.71 ± 0.29 S/m
m1 = 0.4055	1.48 ± 0.17 S/m
m1 = 0.4138	1.74 ± 0.22 S/m
m1 = 0.4195	1.51 ± 0.18 S/m
m1 = 0.424	1.78 ± 0.23 S/m
m1 = 0.4334	1.55 ± 0.19 S/m
m1 = 0.4465	1.59 ± 0.19 S/m
m1 = 0.4591	1.62 ± 0.2 S/m
m1 = 0.4709	1.65 ± 0.2 S/m
m1 = 0.4825	1.67 ± 0.21 S/m
m1 = 0.5351	1.82 ± 0.24 S/m
m1 = 0.5473	1.85 ± 0.25 S/m
m1 = 0.5594	1.89 ± 0.26 S/m
m1 = 0.5705	1.93 ± 0.26 S/m

CCCC(=O)O.OCCNCCO [diethanolamine butyrate] + O
Details	electrical conductivity [S/m]
m1 = 0.01798	0.077 ± 0.011
m1 = 0.01805	0.09 ± 0.01
m1 = 0.03516	0.166 ± 0.013
m1 = 0.03577	0.142 ± 0.012
m1 = 0.05397	0.257 ± 0.019
m1 = 0.05531	0.207 ± 0.016
m1 = 0.0709	0.318 ± 0.028
m1 = 0.07433	0.284 ± 0.027
m1 = 0.09407	0.346 ± 0.025
m1 = 0.09424	0.389 ± 0.028
m1 = 0.1085	0.453 ± 0.032
m1 = 0.1122	0.403 ± 0.039
m1 = 0.1275	0.519 ± 0.039
m1 = 0.1316	0.486 ± 0.036
m1 = 0.1455	0.581 ± 0.045
m1 = 0.1496	0.538 ± 0.041
m1 = 0.1638	0.641 ± 0.051
m1 = 0.1683	0.577 ± 0.045
m1 = 0.1807	0.696 ± 0.057
m1 = 0.186	0.597 ± 0.047
m1 = 0.1982	0.75 ± 0.064
m1 = 0.2035	0.651 ± 0.052
m1 = 0.2144	0.801 ± 0.069
m1 = 0.2203	0.694 ± 0.058
m1 = 0.231	0.87 ± 0.078
m1 = 0.237	0.725 ± 0.06
m1 = 0.2464	0.912 ± 0.083
m1 = 0.2525	0.764 ± 0.065
m1 = 0.2616	0.954 ± 0.089
m1 = 0.2679	0.782 ± 0.067
m1 = 0.2758	0.994 ± 0.094
m1 = 0.2824	0.821 ± 0.072
m1 = 0.2899	1.03 ± 0.099
m1 = 0.297	0.862 ± 0.077
m1 = 0.3032	1.06 ± 0.1
m1 = 0.3106	0.908 ± 0.083
m1 = 0.3162	1.1 ± 0.11
m1 = 0.324	0.95 ± 0.088
m1 = 0.3283	1.13 ± 0.11
m1 = 0.3321	0.98 ± 0.093
m1 = 0.3402	1.16 ± 0.12
m1 = 0.3438	1 ± 0.096
m1 = 0.3514	1.19 ± 0.12
m1 = 0.3555	1.02 ± 0.099
m1 = 0.3623	1.22 ± 0.13
m1 = 0.3665	1.05 ± 0.1
m1 = 0.3726	1.24 ± 0.13
m1 = 0.3774	1.05 ± 0.1
m1 = 0.3826	1.27 ± 0.14
m1 = 0.3875	1.07 ± 0.1
m1 = 0.3917	1.29 ± 0.14
m1 = 0.3975	1.1 ± 0.11
m1 = 0.4022	1.32 ± 0.14
m1 = 0.4068	1.12 ± 0.11
m1 = 0.4115	1.35 ± 0.15
m1 = 0.416	1.14 ± 0.12
m1 = 0.4201	1.38 ± 0.15
m1 = 0.4245	1.16 ± 0.12
m1 = 0.4284	1.4 ± 0.16
m1 = 0.433	1.18 ± 0.12
m1 = 0.4368	1.43 ± 0.17
m1 = 0.4446	1.45 ± 0.17

CCC(=O)[O-].C[NH2+]CCO [2-hydroxy-N-methylethanaminium propionate] + O
Details	electrical conductivity [S/m]
m1 = 0.01487	0.066 ± 0.009
m1 = 0.0155	0.073 ± 0.008
m1 = 0.03159	0.133 ± 0.01
m1 = 0.03183	0.139 ± 0.011
m1 = 0.04881	0.195 ± 0.014
m1 = 0.0489	0.202 ± 0.014
m1 = 0.06492	0.266 ± 0.018
m1 = 0.06527	0.277 ± 0.019
m1 = 0.08046	0.329 ± 0.022
m1 = 0.08214	0.323 ± 0.022
m1 = 0.09748	0.384 ± 0.027
m1 = 0.09889	0.378 ± 0.026
m1 = 0.1136	0.436 ± 0.031
m1 = 0.1159	0.427 ± 0.031
m1 = 0.1305	0.487 ± 0.036
m1 = 0.1324	0.476 ± 0.035
m1 = 0.1464	0.536 ± 0.041
m1 = 0.1495	0.523 ± 0.04
m1 = 0.1622	0.604 ± 0.053
m1 = 0.1651	0.568 ± 0.05
m1 = 0.1776	0.648 ± 0.052
m1 = 0.1814	0.613 ± 0.048
m1 = 0.1935	0.69 ± 0.056
m1 = 0.1966	0.654 ± 0.052
m1 = 0.2081	0.727 ± 0.061
m1 = 0.2121	0.694 ± 0.057
m1 = 0.223	0.764 ± 0.065
m1 = 0.2264	0.702 ± 0.058
m1 = 0.237	0.798 ± 0.069
m1 = 0.2408	0.721 ± 0.06
m1 = 0.25	0.829 ± 0.072
m1 = 0.2542	0.723 ± 0.061
m1 = 0.2632	0.872 ± 0.079
m1 = 0.2677	0.786 ± 0.068
m1 = 0.2756	0.908 ± 0.083
m1 = 0.28	0.814 ± 0.071
m1 = 0.2879	0.933 ± 0.086
m1 = 0.2922	0.834 ± 0.073
m1 = 0.2994	0.957 ± 0.089
m1 = 0.3036	0.86 ± 0.077
m1 = 0.3106	0.98 ± 0.093
m1 = 0.3149	0.906 ± 0.082
m1 = 0.3211	1 ± 0.095
m1 = 0.3255	0.923 ± 0.085
m1 = 0.3317	1.02 ± 0.098
m1 = 0.3357	0.946 ± 0.088
m1 = 0.3415	1.04 ± 0.1
m1 = 0.3454	0.967 ± 0.091
m1 = 0.3511	1.06 ± 0.1
m1 = 0.355	0.987 ± 0.093
m1 = 0.3602	1.08 ± 0.11
m1 = 0.364	1.01 ± 0.096
m1 = 0.3691	1.09 ± 0.11
m1 = 0.3726	1.03 ± 0.099
m1 = 0.3774	1.11 ± 0.11
m1 = 0.3808	1.05 ± 0.1
m1 = 0.3856	1.13 ± 0.12
m1 = 0.3885	1.05 ± 0.1
m1 = 0.3933	1.15 ± 0.12
m1 = 0.396	1.07 ± 0.11
m1 = 0.4009	1.17 ± 0.12
m1 = 0.4032	1.09 ± 0.11
m1 = 0.4079	1.19 ± 0.12
m1 = 0.4098	1.09 ± 0.11
m1 = 0.4148	1.21 ± 0.13
m1 = 0.4165	1.11 ± 0.11
m1 = 0.4227	1.12 ± 0.11

Source: the NIST ThermoML archive (doi:10.1021/acs.jced.7b01053)
